Experimental data as given in patent US9611269B2, “Azetidinyl phenyl, pyridyl or pyrazinyl carboxamide derivatives as JAK inhibitors” (Incyte Corporation, priority 2011, dated 2017).

Experiments:
Assay type in all cases: biochemical
[1] = target: human JAK1 (a.a. 837-1142) catalytic domain (Homo sapiens, UniProt P23458); test: In vitro JAK kinase assay (HTRF, 1 mM ATP), JAK1; settings: at 1 mM ATP;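 further: kinase activity followed as phosphorylation of a biotin-tagged peptide, detected by HTRF with Eu-labelled anti-phosphotyrosine antibody and SA-APC, after 1 h reaction at room temperature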
Protocol: (§1) The catalytic activity of JAK1, JAK2 or JAK3 was assayed by measuring the phosphorylation of a biotinylated peptide. The phosphorylated peptide was detected by homogenous time resolved fluorescence (HTRF). […] Reactions were carried out at room temperature for 1 hour and then stopped with 20 μL 45 mM EDTA, 300 nM SA-APC, 6 nM Eu-Py20 in assay buffer (Perkin Elmer, Boston, Mass.). Binding to the Europium labeled antibody took place for 40 minutes and HTRF signal was measured on a Fusion plate reader (Perkin Elmer, Boston, Mass.).

[2] = system: human JAK1 (a.a. 837-1142) catalytic domain; test: In vitro JAK kinase assay (HTRF, 1 mM ATP), JAK1; settings: ratio of JAK2 IC50 to JAK1 IC50 at 1 mM ATP;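 further: kinase activity followed as phosphorylation of a biotin-tagged peptide, detected by HTRF with Eu-labelled anti-phosphotyrosine antibody and SA-APC, after 1 h reaction at room temperature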
Protocol: as §1

[3] = target: human JAK2 (a.a. 828-1132) catalytic domain (Homo sapiens (Human), UniProt O60674); test: In vitro JAK kinase assay (HTRF, 1 mM ATP), JAK2; settings: at 1 mM ATP
Sequence of human JAK2 (a.a. 828-1132) catalytic domain (O60674 828-1132): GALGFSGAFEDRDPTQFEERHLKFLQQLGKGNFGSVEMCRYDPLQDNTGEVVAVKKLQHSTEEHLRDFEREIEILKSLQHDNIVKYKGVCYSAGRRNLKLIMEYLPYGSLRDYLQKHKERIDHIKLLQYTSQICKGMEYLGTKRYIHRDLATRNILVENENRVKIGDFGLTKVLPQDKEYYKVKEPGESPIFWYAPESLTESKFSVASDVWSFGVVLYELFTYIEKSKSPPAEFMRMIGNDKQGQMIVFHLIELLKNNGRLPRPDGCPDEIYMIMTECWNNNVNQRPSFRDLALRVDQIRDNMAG
Protocol: as §1

Sequence of human JAK1 (a.a. 837-1142) catalytic domain (Homo sapiens, UniProt P23458) (P23458 whole entry, looked up, the tested form may be a part): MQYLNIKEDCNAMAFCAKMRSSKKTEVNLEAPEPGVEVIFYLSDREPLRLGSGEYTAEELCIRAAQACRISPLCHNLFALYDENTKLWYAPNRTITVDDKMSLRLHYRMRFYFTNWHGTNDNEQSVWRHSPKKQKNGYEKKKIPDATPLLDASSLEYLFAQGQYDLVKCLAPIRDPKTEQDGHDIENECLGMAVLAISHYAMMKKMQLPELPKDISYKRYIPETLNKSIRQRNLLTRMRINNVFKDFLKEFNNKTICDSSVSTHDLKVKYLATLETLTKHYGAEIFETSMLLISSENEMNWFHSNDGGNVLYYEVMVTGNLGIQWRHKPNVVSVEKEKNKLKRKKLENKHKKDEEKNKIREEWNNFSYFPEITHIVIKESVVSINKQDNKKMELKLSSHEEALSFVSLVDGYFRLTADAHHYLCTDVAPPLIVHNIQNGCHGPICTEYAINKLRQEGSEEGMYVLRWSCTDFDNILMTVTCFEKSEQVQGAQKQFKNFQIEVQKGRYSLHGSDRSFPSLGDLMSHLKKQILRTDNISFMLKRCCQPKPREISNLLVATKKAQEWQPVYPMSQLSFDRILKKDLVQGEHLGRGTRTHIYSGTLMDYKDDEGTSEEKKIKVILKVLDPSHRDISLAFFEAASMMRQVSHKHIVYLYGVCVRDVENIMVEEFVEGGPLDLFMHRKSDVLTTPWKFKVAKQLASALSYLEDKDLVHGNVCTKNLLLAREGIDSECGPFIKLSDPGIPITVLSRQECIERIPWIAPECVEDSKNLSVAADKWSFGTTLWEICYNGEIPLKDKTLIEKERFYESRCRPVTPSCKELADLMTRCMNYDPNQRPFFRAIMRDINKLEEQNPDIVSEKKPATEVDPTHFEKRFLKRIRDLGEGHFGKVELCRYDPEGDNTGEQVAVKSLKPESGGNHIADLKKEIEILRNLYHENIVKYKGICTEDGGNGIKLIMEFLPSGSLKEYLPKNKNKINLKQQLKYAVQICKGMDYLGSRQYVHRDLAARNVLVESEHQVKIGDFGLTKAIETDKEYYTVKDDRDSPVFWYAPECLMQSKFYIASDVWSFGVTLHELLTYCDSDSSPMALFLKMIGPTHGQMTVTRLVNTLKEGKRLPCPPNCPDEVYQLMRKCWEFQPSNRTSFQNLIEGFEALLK

SMILES | IC50 [1] [nM] | JAK2/JAK1 [2] | IC50 [3] [nM]
CC(C)NC(=O)c1ccc(N2CC(CC#N)(n3cc(-c4ccnc5[nH]ccc45)cn3)C2)cc1 [Example 1, 4-{3-(Cyanomethyl)-3-[4-(1H-pyrrolo[2,3-b]pyridin-4-yl)-1H-pyrazol-1-yl]azetidin-1-yl}-N-isopropylbenzamide] | < 10 | A (A means greater than or equal to 10) | 10 to 40
C[C@H](NC(=O)c1ccc(N2CC(CC#N)(n3cc(-c4ccnc5[nH]ccc45)cn3)C2)cn1)C1CC1 [Example 2, 5-{3-(Cyanomethyl)-3-[4-(1H-pyrrolo[2,3-b]pyridin-4-yl)-1H-pyrazol-1-yl]azetidin-1-yl}-N-[(1S)-1-cyclopropylethyl]pyridine-2-carboxamide] | < 10 | A (A means greater than or equal to 10) | ≤ 10
CC(C)NC(=O)c1ccc(N2CC(CC#N)(n3cc(-c4ncnc5[nH]ccc45)cn3)C2)c(F)c1 [Example 3, 4-{3-(Cyanomethyl)-3-[4-(7H-pyrrolo[2,3-d]pyrimidin-4-yl)-1H-pyrazol-1-yl]azetidin-1-yl}-3-fluoro-N-isopropylbenzamide] | < 10 | A (A means greater than or equal to 10) | ≤ 10
C[C@@H](NC(=O)c1ccc(N2CC(CC#N)(n3cc(-c4ncnc5[nH]ccc45)cn3)C2)c(F)c1)C1CC1 [Example 4, 4-{3-(Cyanomethyl)-3-[4-(7H-pyrrolo[2,3-d]pyrimidin-4-yl)-1H-pyrazol-1-yl]azetidin-1-yl}-N-[(1R)-1-cyclopropylethyl]-3-fluorobenzamide] | < 10 | A (A means greater than or equal to 10) | ≤ 10
C[C@H](NC(=O)c1ccc(N2CC(CC#N)(n3cc(-c4ncnc5[nH]ccc45)cn3)C2)c(F)c1)C1CC1 [Example 5, 4-{3-(Cyanomethyl)-3-[4-(7H-pyrrolo[2,3-d]pyrimidin-4-yl)-1H-pyrazol-1-yl]azetidin-1-yl}-N-[(1S)-1-cyclopropylethyl]-3-fluorobenzamide] | < 10 | A (A means greater than or equal to 10) | ≤ 10
CC(C)NC(=O)c1cc(F)c(N2CC(CC#N)(n3cc(-c4ncnc5[nH]ccc45)cn3)C2)cc1F [Example 6, 4-{3-(Cyanomethyl)-3-[4-(7H-pyrrolo[2,3-d]pyrimidin-4-yl)-1H-pyrazol-1-yl]azetidin-1-yl}-2,5-difluoro-N-isopropylbenzamide] | < 10 | A (A means greater than or equal to 10) | ≤ 10
CN(C(=O)c1ccc(N2CC(CC#N)(n3cc(-c4ncnc5[nH]ccc45)cn3)C2)c(F)c1)C1CC1 [Example 7, 4-{3-(Cyanomethyl)-3-[4-(7H-pyrrolo[2,3-d]pyrimidin-4-yl)-1H-pyrazol-1-yl]azetidin-1-yl}-N-cyclopropyl-3-fluoro-N-methylbenzamide] | < 10 | A (A means greater than or equal to 10) | ≤ 10
CC(C)NC(=O)c1cc(Cl)c(N2CC(CC#N)(n3cc(-c4ncnc5[nH]ccc45)cn3)C2)cc1F [Example 8, 5-Chloro-4-{3-(cyanomethyl)-3-[4-(7H-pyrrolo[2,3-d]pyrimidin-4-yl)-1H-pyrazol-1-yl]azetidin-1-yl}-2-fluoro-N-isopropylbenzamide] | < 10 | A (A means greater than or equal to 10) | ≤ 10
CC(C)NC(=O)c1ccc(N2CC(CC#N)(n3cc(-c4ncnc5[nH]ccc45)cn3)C2)cn1 [Example 9, 5-{3-(Cyanomethyl)-3-[4-(7H-pyrrolo[2,3-d]pyrimidin-4-yl)-1H-pyrazol-1-yl]azetidin-1-yl}-N-isopropylpyridine-2-carboxamide] | < 10 | A (A means greater than or equal to 10) | ≤ 10
C[C@H](NC(=O)c1ccc(N2CC(CC#N)(n3cc(-c4ncnc5[nH]ccc45)cn3)C2)c(F)c1)C(F)(F)F [Example 10, 4-{3-(Cyanomethyl)-3-[4-(7H-pyrrolo[2,3-d]pyrimidin-4-yl)-1H-pyrazol-1-yl]azetidin-1-yl}-3-fluoro-N-[(1S)-2,2,2-trifluoro-1-methylethyl]benzamide] | < 10 | A (A means greater than or equal to 10) | ≤ 10
C[C@H](NC(=O)c1ccc(N2CC(CC#N)(n3cc(-c4ncnc5[nH]ccc45)cn3)C2)cn1)C1CC1 [Example 11, 5-{3-(Cyanomethyl)-3-[4-(7H-pyrrolo[2,3-d]pyrimidin-4-yl)-1H-pyrazol-1-yl]azetidin-1-yl}-N-[(1S)-1-cyclopropylethyl]pyridine-2-carboxamide] | < 10 | A (A means greater than or equal to 10) | ≤ 10
N#CCC1(n2cc(-c3ncnc4[nH]ccc34)cn2)CN(c2ccc(C(=O)NC3CC(F)(F)C3)nc2)C1 [Example 12, 5-{3-(Cyanomethyl)-3-[4-(7H-pyrrolo[2,3-d]pyrimidin-4-yl)-1H-pyrazol-1-yl]azetidin-1-yl}-N-(3,3-difluorocyclobutyl)pyridine-2-carboxamide] | < 10 | A (A means greater than or equal to 10) | ≤ 10
CC(C)NC(=O)c1ccc(N2CC(CC#N)(n3cc(-c4ncnc5[nH]ccc45)cn3)C2)cc1 [Example 13, 4-{3-(Cyanomethyl)-3-[4-(7H-pyrrolo[2,3-d]pyrimidin-4-yl)-1H-pyrazol-1-yl]azetidin-1-yl}-N-isopropylbenzamide] | < 10 | A (A means greater than or equal to 10) | 10 to 40
CC(C)NC(=O)c1ccc(N2CC(CC#N)(n3cc(-c4ncnc5[nH]ccc45)cn3)C2)cc1F [Example 14, 4-{3-(Cyanomethyl)-3-[4-(7H-pyrrolo[2,3-d]pyrimidin-4-yl)-1H-pyrazol-1-yl]azetidin-1-yl}-2-fluoro-N-isopropylbenzamide] | < 10 |  | 
C[C@H](NC(=O)c1ccc(N2CC(CC#N)(n3cc(-c4ncnc5[nH]ccc45)cn3)C2)cc1F)C1CCCCC1 [Example 15, 4-{3-(Cyanomethyl)-3-[4-(7H-pyrrolo[2,3-d]pyrimidin-4-yl)-1H-pyrazol-1-yl]azetidin-1-yl}-N-[(1S)-1-cyclohexylethyl]-2-fluorobenzamide] | < 10 | A (A means greater than or equal to 10) | 10 to 40
C[C@@H](NC(=O)c1ccc(N2CC(CC#N)(n3cc(-c4ncnc5[nH]ccc45)cn3)C2)c(F)c1)C(F)(F)F [Example 16, 4-{3-(Cyanomethyl)-3-[4-(7H-pyrrolo[2,3-d]pyrimidin-4-yl)-1H-pyrazol-1-yl]azetidin-1-yl}-3-fluoro-N-[(1R)-2,2,2-trifluoro-1-methylethyl]benzamide] | < 10 | A (A means greater than or equal to 10) | ≤ 10
N#CCC1(n2cc(-c3ncnc4[nH]ccc34)cn2)CN(c2ccc(C(=O)NC3(C(F)(F)F)CC3)nc2)C1 [Example 17, 5-{3-(Cyanomethyl)-3-[4-(7H-pyrrolo[2,3-d]pyrimidin-4-yl)-1H-pyrazol-1-yl]azetidin-1-yl}-N-[1-(trifluoromethyl)cyclopropyl]pyridine-2-carboxamide] | < 10 | A (A means greater than or equal to 10) | ≤ 10
CC(C)NC(=O)c1cnc(N2CC(CC#N)(n3cc(-c4ncnc5[nH]ccc45)cn3)C2)cn1 [Example 18, 5-{3-(Cyanomethyl)-3-[4-(7H-pyrrolo[2,3-d]pyrimidin-4-yl)-1H-pyrazol-1-yl]azetidin-1-yl}-N-isopropylpyrazine-2-carboxamide] |  |  | 10 to 40
C[C@H](NC(=O)c1ccc(N2CC(CC#N)(n3cc(-c4ncnc5[nH]ccc45)cn3)C2)cc1)C(F)(F)F [Example 19, 4-{3-(Cyanomethyl)-3-[4-(7H-pyrrolo[2,3-d]pyrimidin-4-yl)-1H-pyrazol-1-yl]azetidin-1-yl}-N-[(1S)-2,2,2-trifluoro-1-methylethyl]benzamide bis(trifluoroacetate)] | < 10 |  | 
CC(NC(=O)c1ccc(N2CC(CC#N)(n3cc(-c4ncnc5[nH]ccc45)cn3)C2)cc1)C1CCN(C)CC1 (stereo not drawn) [Example 20, 4-{3-(Cyanomethyl)-3-[4-(7H-pyrrolo[2,3-d]pyrimidin-4-yl)-1H-pyrazol-1-yl]azetidin-1-yl}-N-[1-(1-methylpiperidin-4-yl)ethyl]benzamide] | < 10 | A (A means greater than or equal to 10) | 10 to 40
C[C@@H](NC(=O)c1cc(F)c(N2CC(CC#N)(n3cc(-c4ncnc5[nH]ccc45)cn3)C2)cc1F)C1CC1 [Example 21, 4-{3-(Cyanomethyl)-3-[4-(7H-pyrrolo[2,3-d]pyrimidin-4-yl)-1H-pyrazol-1-yl]azetidin-1-yl}-N-[(1R)-1-cyclopropylethyl]-2,5-difluorobenzamide] | < 10 | A (A means greater than or equal to 10) | ≤ 10
C[C@@H](NC(=O)c1ccc(N2CC(CC#N)(n3cc(-c4ncnc5[nH]ccc45)cn3)C2)cc1)C(F)(F)F [Example 23, 4-{3-(Cyanomethyl)-3-[4-(7H-pyrrolo[2,3-d]pyrimidin-4-yl)-1H-pyrazol-1-yl]azetidin-1-yl}-N-[(1R)-2,2,2-trifluoro-1-methylethyl]benzamide bis(trifluoroacetate)] | < 10 |  | 
CC(NC(=O)c1ccc(N2CC(CC#N)(n3cc(-c4ncnc5[nH]ccc45)cn3)C2)cc1)C(F)(F)F (stereo not drawn) [Example 26, 4-{3-(Cyanomethyl)-3-[4-(7H-pyrrolo[2,3-d]pyrimidin-4-yl)-1H-pyrazol-1-yl]azetidin-1-yl}-N-(2,2,2-trifluoro-1-methylethyl)benzamide] | < 10 |  | 
CC(C)NC(=O)c1cnc(N2CC(CC#N)(n3cc(-c4ccnc5[nH]ccc45)cn3)C2)cn1 [Example 34, 5-{3-(Cyanomethyl)-3-[4-(1H-pyrrolo[2,3-b]pyridin-4-yl)-1H-pyrazol-1-yl]azetidin-1-yl}-N-isopropylpyrazine-2-carboxamide] |  |  | 10 to 40
